Data published in patent publication US8614218B2, “Fused bicyclic pyrimidines” (Bayer Intellectual Property GmbH, priority 2007, dated 2013).

tested on: phospho-Akt (Ser473); assay: Cellular PI3K/Akt pathway assay (phospho-Akt ELISA); type: cell-based; conditions: Homo sapiens, MCF7 cells, β-Heregulin stimulated, 48 h incubation
From the text: Cellular PI3K/Akt Pathway Assay
In order to study the cellular activity of the compounds according to the present invention, an Enzyme Linked Immunosorbent Assay (ELISA)-based assay has been used specific phospho-AKT. The assay is based on a Sandwich ELISA kit (PathScan™ Phospho-Akt1 (Ser473); Cell Signaling, USA; #7160). The ELISA Kit detects endogenous levels of phosphorylated Akt protein. A phospho-Akt (Ser473) antibody (Cell Signaling, USA; #9271) has been coated onto the microwells. After incubation with cell lysates, the coated antibody captures the phosphorylated Akt protein. Following extensive washing, Akt1 monoclonal antibody (Cell Signaling, USA; #2967) is added to detect the captured phospho-Akt1 protein. HRP-linked anti-mouse antibody (HRP: horseradish peroxidase; Cell Signaling, USA; #7076) is then used to recognize the bound detection antibody. HRP substrate (=3,3′,5,5′-tetramethylbenzidine (TMB); Cell Signaling, USA; #7160) is added to develop colour. The magnitude of optical density for this developed color is proportional to the quantity of phosphorylated Akt protein.
MCF7 cells (ATCC HTB-22) are seeded into 96 well fate bottom plates at a density of 10000 cells/well. 24 hours after seeding, the cells are serum starved using low-serum medium (IMEM media including 0.1% charcoal treated FCS (FCS: fetal calf serum)). After 24 hours 1 μl each of the compound dilutions (test compounds were dissolved as 10 mM solutions in dimethylsulfoxide (DMSO) and subsequently diluted) are added into each well of the 96 well plates and incubated for 48 h at 37° C. in a humidified atmosphere containing 5% CO2. To stimulate Akt phosphorylation, β-Heregulin (20 ng/ml β-HRG) is added in parallel to the compounds. Wells containing unstimulated control cells (no β-Heregulin stimulation) are incubated with or without the diluted compound. Wells containing untreated control cells (no compound) are filled with medium containing 0.5% v:v DMSO and are or are not stimulated with β-Heregulin.
Cells are harvested and lysed with brief sonification in 1× cell lysis buffer (20 mM Tris (pH7.5), 150 mM NaCl, 1 mM ethylene diaminetetraacetate (EDTA), 1 mM ethylene glycolbis(2-aminoethyl)-N,N,N′,N′-tetraacetic acid (EGTA), 1 vol % Triton X-100, 2.5 mM sodium pyrophosphate, 1 mM β-glycerolphosphate, 1 mM Na3VO4, 1 μg/ml leupeptin). The lysate is centrifuged for 10 min. at 4° C. and the supernatant is transferred to a new tube. 100 μl of sample diluent (0.1 vol % Tween-20, 0.1 vol % sodium azide in phosphate buffered saline (PBS)) are added to a microcentrifuge tube and 100 μl of cell lysate are transferred into the tube and vortexed. 100 μl of each diluted cell lysate are added to the appropriate ELISA well, and incubated overnight at 4° C. The plates are washed 4 times with 1× wash buffer (1 vol % tween-20, 0.33 vol % thymol, in PBS). Next 100 μl of detection antibody (Akt1 (2H10) monoclonal detection antibody; Cell Signaling, USA; #2967) are added to each well and incubation continued for 1 h at 37° C. The washing procedure is repeated between each step. 100 μl of secondary antibody (anti-mouse IgG HRP-linked antibody; Cell Signaling, USA; #7076) are added to each well and incubated for 30 min. at 37° C. Than, 100 μl of TMB substrate (0.05% 3,3′,5,5′ tetramethylbenzidine, 0.1% hydrogen peroxide, complex polypeptides in a buffered solution; Cell Signaling, USA; #7160) are added to each well and incubated for 30 min. at 25° C. Finally 100 μl of STOP solution (0.05 vol % α and β unsaturated carbonyl compound) are added to each well and the plate are shaked gently. The absorbance is measured at λ=450 nm (Wallac Victor2; Perkin Elmer, USA) within 30 min. after adding the STOP solution. The analysis of the data is performed using a statistical program (Excel; Microsoft, USA). Preferred compounds show an inhibitory activity towards Akt phosphorylation below 10 μM.

IC50, < 1 µM:
C#Cc1cnn2cc(-c3ccccc3)c(-c3ccc(CN4CCC(c5n[nH]c(-c6ccccn6)n5)CC4)cc3)nc12 [Example 33, 3-Ethynyl-6-phenyl-5-(4-{[4-(5-pyridin-2-yl-1H-1,2,4-triazol-3-yl)piperidin-1-yl]methyl}phenyl)pyrazolo[1,5-a]pyrimidine]
Cc1cccc(-c2nc(C3CCN(Cc4ccc(-c5nc6nccn6cc5-c5ccccc5)cc4)CC3)n[nH]2)n1 [Example 36, 7-[4-({4-[5-(6-Methylpyridin-2-yl)-1H-1,2,4-triazol-3-yl]piperidin-1-yl}methyl)phenyl]-6-phenylimidazo[1,2-a]pyrimidine]
Cc1ccnc(-c2nc(C3CCN(Cc4ccc(-c5nc6nccn6cc5-c5ccccc5)cc4)CC3)n[nH]2)c1 [Example 35, 7-[4-({4-[5-(4-Methylpyridin-2-yl)-1H-1,2,4-triazol-3-yl]piperidin-1-yl}methyl)phenyl]-6-phenylimidazo[1,2-a]pyrimidine]
CCc1cnn2cc(-c3ccccc3)c(-c3ccc(CN4CCC(c5n[nH]c(-c6ccccn6)n5)CC4)cc3)nc12 [Example 34, 3-Ethyl-6-phenyl-5-(4-{[4-(5-pyridin-2-yl-1H-1,2,4-triazol-3-yl)piperidin-1-yl]methyl}phenyl)pyrazolo[1,5-a]pyrimidine]
Clc1cnn2cc(-c3ccccc3)c(-c3ccc(CN4CCC(c5n[nH]c(-c6ccccn6)n5)CC4)cc3)nc12 [Example 30, 3-Chloro-6-phenyl-5-(4-{[4-(5-pyridin-2-yl-1H-1,2,4-triazol-3-yl)piperidin-1-yl]methyl}phenyl)pyrazolo[1,5-a]pyrimidine]
Fc1cnc2nc(-c3ccc(CN4CCC(c5n[nH]c(-c6ncccn6)n5)CC4)cc3)c(-c3ccccc3)cn12 [Example 25, 3-fluoro-6-phenyl-7-(4-{[4-(5-pyrimidin-2-yl-1H-1,2,4-triazol-3-yl)piperidin-1-yl]methyl}phenyl)imidazo[1,2-a]pyrimidine]
CC(c1ccc(-c2nc3nccn3cc2-c2ccccc2)cc1)N1CCC(c2n[nH]c(-c3ccccn3)n2)CC1 (racemic) [Example 23, 6-phenyl-7-(4-{1-[4-(5-pyridin-2-yl-1H-1,2,4-triazol-3-yl)piperidin-1-yl]ethyl}phenyl)imidazo[1,2-a]pyrimidine]
Fc1cnc2nc(-c3ccc(CN4CCC(c5n[nH]c(-c6cnccn6)n5)CC4)cc3)c(-c3ccccc3)cn12 [Example 24, 3-fluoro-6-phenyl-7-(4-{[4-(5-pyrazin-2-yl-1,2,4-triazol-3-yl)piperidin-1-yl]methyl}phenyl)imidazo[1,2-a]pyrimidine]
N#Cc1cnn2cc(-c3ccccc3)c(-c3ccc(CN4CCC(c5n[nH]c(-c6ccccn6)n5)CC4)cc3)nc12 [Example 32, 6-Phenyl-5-(4-{[4-(5-pyridin-2-yl-1H-1,2,4-triazol-3-yl)piperidin-1-yl]methyl}phenyl)pyrazolo[1,5-a]pyrimidine-3-carbonitrile]
CCc1nc2nc(-c3ccc(CN4CCC(c5n[nH]c(-c6ccccn6)n5)CC4)cc3)c(-c3ccccc3)cn2n1 [Example 40, 2-Ethyl-6-phenyl-5-(4-{[4-(5-pyridin-2-yl-1H-1,2,4-triazol-3-yl)piperidin-1-yl]methyl}phenyl)[1,2,4]triazolo[1,5-a]pyrimidine]
Brc1cnn2cc(-c3ccccc3)c(-c3ccc(CN4CCC(c5n[nH]c(-c6ccccn6)n5)CC4)cc3)nc12 [Example 31, 3-Bromo-6-phenyl-5-(4-{[4-(5-pyridin-2-yl-1H-1,2,4-triazol-3-yl)piperidin-1-yl]methyl}phenyl)pyrazolo[1,5-a]pyrimidine]
